Assay results reported in patent US20230339836A1, “METHOD FOR PRODUCING REDUCED COENZYME Q10 FORM II CRYSTALS” (KANEKA CORPORATION, priority 2020, published 2023).

What was measured:
[1] = Saturated concentration calculated from Expressions 3 to 8 for 99.5% (v/v) ethanol; format: physicochemical; conditions: calculated by Expressions 7 and 8, natural logarithm
Source text: Further, the ethanol concentration of 99.5% (v/v) was assigned to Z of Expressions 3, 4, 5, and 6 to obtain the values of the constants AI, BI, AII, and BII. Using these constants, the Log CI of the saturated concentration CI (% by weight) of the Form I-type crystal and the Log CII of the saturated concentration CII (% by weight) of the Form II-type crystal were obtained at each temperature (converting the unit to Kelvin) shown in Table 5 according to Expressions 7 and 8 above.

[2] = Solubility (saturated concentration) of reduced coenzyme Q10 crystals in hydrous ethanol, HPLC of filtered liquid phase; format: physicochemical
Protocol: The dissolved concentration of reduced coenzyme Q10 in a liquid phase was measured by analyze a liquid phase sample by high performance liquid chromatography under the following conditions.
• Column: SYMMETRY C18 (manufactured by Waters); 250 mm (length), 4.6 mm (inner diameter) • Mobile phase: C2H5OH:CH3OH=4:3 (v:v) • Detection wavelength: 210 nm • Flow rate: 1 ml/min • Retention time of reduced coenzyme Q10: 9.1 min.
The solubility (saturated concentration) (% by weight) of each of a reduced coenzyme Q10 Form I-type crystal (Form I-type crystal) and a reduced coenzyme Q10 Form II-type crystal (Form II-type crystal) in hydrous ethanol with an ethanol concentration per total volume of 99.5% (v/v), 95% (v/v), and 90% (v/v) at temperatures of 298.15K (25° C.), 303.15K (30° C.), 308.15K (35° C.), and 313.15K (40° C.) was obtained.
The solubility was measured by the following procedures.
To approximately 30 g of each hydrous ethanol, approximately 10 g of a Form I-type crystal or a Form II-type crystal was added, the mixture was stirred under a nitrogen atmosphere and maintained for approximately 1 hour at temperatures of 25° C., 30° C., 35° C., and 40° C. Sampling was performed at each temperature and each sample was filtered quickly to obtain a liquid phase sample. Each sample was analyzed under the above HPLC conditions and the solubility was calculated.

[3] = compared with Form I-type crystal; Patent Literature 4; cited from earlier work
[4] = compared with oxidized coenzyme Q10; cited from earlier work
[5] = 90% (v/v) ethanol, 298.15 K (25° C.)
[6] = 90% (v/v) ethanol, 303.15 K (30° C.)
[7] = 90% (v/v) ethanol, 308.15 K (35° C.)
[8] = 90% (v/v) ethanol, 313.15 K (40° C.)
[9] = 95% (v/v) ethanol, 298.15 K (25° C.)
[10] = 95% (v/v) ethanol, 303.15 K (30° C.)
[11] = 95% (v/v) ethanol, 308.15 K (35° C.)
[12] = 95% (v/v) ethanol, 313.15 K (40° C.)
[13] = 99.5% (v/v) ethanol, 298.15 K (25° C.)
[14] = 99.5% (v/v) ethanol, 303.15 K (30° C.)
[15] = 99.5% (v/v) ethanol, 308.15 K (35° C.)
[16] = 99.5% (v/v) ethanol, 313.15 K (40° C.)

| SMILES | Log of saturated concentration (% by weight) ([1]; 10° C.) | Log of saturated concentration (% by weight) ([1]; 20° C.) | Log of saturated concentration (% by weight) ([1]; 25° C.) | Log of saturated concentration (% by weight) ([1]; 30° C.) | Log of saturated concentration (% by weight) ([1]; 35° C.) | Solubility [2, 5] | Solubility [2, 6] | Solubility [2, 7] | Solubility [2, 8] | Solubility [2, 9] | Solubility [2, 10] | Solubility [2, 11] | Solubility [2, 12] | Solubility [2, 13] | Solubility [2, 14] | Solubility [2, 15] | Solubility [2, 16] | Solubility compared between crystal forms ([2]; hydrous ethanol with any concentration (99.5, 95, 90% v/v)) | Stability of crystal form [3] | Oral absorbability [4] |
| --- | --- | --- | --- | --- | --- | --- | --- | --- | --- | --- | --- | --- | --- | --- | --- | --- | --- | --- | --- | --- |
| COc1c(O)c(C)c(C/C=C(\C)CC/C=C(\C)CC/C=C(\C)CC/C=C(\C)CC/C=C(\C)CC/C=C(\C)CC/C=C(\C)CC/C=C(\C)CC/C=C(\C)CCC=C(C)C)c(O)c1OC [Form I, reduced coenzyme Q10] | −2.686 | −0.584 | 0.467 | 1.517 | 2.568 | 0.13 % by weight | 0.18 % by weight | 0.29 % by weight | 0.88 % by weight | 0.65 % by weight | 1.01 % by weight | 2.33 % by weight | 8.98 % by weight | 2.01 % by weight | 4.53 % by weight | 12.6 % by weight | 46.3 % by weight | higher than that of the Form II-type crystal |  |  |
| COc1c(O)c(C)c(C/C=C(\C)CC/C=C(\C)CC/C=C(\C)CC/C=C(\C)CC/C=C(\C)CC/C=C(\C)CC/C=C(\C)CC/C=C(\C)CC/C=C(\C)CCC=C(C)C)c(O)c1OC [Form II, reduced coenzyme Q10] | −3.858 | −2.145 | −1.288 | −0.432 | 0.425 | 0.10 % by weight | 0.13 % by weight | 0.23 % by weight | 0.41 % by weight | 0.37 % by weight | 0.52 % by weight | 0.86 % by weight | 2.81 % by weight | 1.22 % by weight | 2.32 % by weight | 5.51 % by weight | 17.9 % by weight |  | much more stable than the conventional reduced coenzyme Q10 |  |
| COc1c(O)c(C)c(C/C=C(\C)CC/C=C(\C)CC/C=C(\C)CC/C=C(\C)CC/C=C(\C)CC/C=C(\C)CC/C=C(\C)CC/C=C(\C)CC/C=C(\C)CCC=C(C)C)c(O)c1OC [reduced coenzyme Q10] |  |  |  |  |  |  |  |  |  |  |  |  |  |  |  |  |  |  |  | higher oral absorbability than that of oxidized coenzyme Q10 |
